Columns and labels:
[1] = tested on: FOF1 in membranes from P. denitrificans; design: method as in PMID 10672007; conditions: cited from earlier work
[2] = target: T1, E. coli membranes with FOF1 lacking the ε subunit's CTD (ε88-stop) (Escherichia coli, UniProt P68699); test: ATP hydrolysis by ε88-stop E. coli membranes, enzyme-coupled spectrophotometric assay; type: biochemical; conditions: for Ki: VentA at half-max. inhibition (Ki), early inhibition; for ATPase at saturating ventA (y0) / VentA-sensitive ATPase (y1): best fit of early rates
T1 construct: To express haploid levels of EcFOF1 containing WT-ε or ε88-stop; expressed in transfected cells; host or cells: E. coli strain XH1 (chromosomal atpC deletion) carrying the ε88-stop version of pMBε1; inverted membrane vesicles
Source text: We next investigated whether the ε-inhibited state of EcFOF1 also impacts interactions of ventA with the enzyme. The N-terminal domain (NTD) of ε is required for FOF1 assembly and functional coupling of F1 to FO in eukaryotic and bacterial species; the C-terminal domain (CTD) of ε can auto-inhibit FOF1 and isolated F1 from some bacteria and from chloroplasts, but the mitochondrial homolog (δ) is not inhibitory[39],[40]. Thus we measured the effects of ventA on ATPase activity of E. coli membranes expressing ε88-stop, which lacks the autoinhibitory εCTD (Fig. 3). From Table 1 (100% ATPase values), it is clear that selenite activates membrane ATPase more (fourfold) for ε88-stop than for WT (2.8-fold). This is because, without the inhibitory εCTD, more enzyme complexes shift to the MgADP-inhibited state, which can be activated by selenite. […] In contrast, early inhibition of ATPase by ventA has similar Ki values for WT and ε88-stop membranes in the absence (0.7 vs 0.5 μM) or in the presence of selenite (0.23 vs 0.09 μM).
(§1) Plasmid pXH302S, which encodes the WT atpC gene and expresses near haploid levels of the ε subunit, was subjected to fusion PCR mutagenesis to construct plasmid pMBε1, with an N-terminal affinity tag ([…]) added prior to the initial Met residue. To express the ε88-stop subunit, an AfeI-ScaI restriction fragment of WT pMBε1 was replaced by the analogous fragment from pH6ε88-stop[46]. To express haploid levels of EcFOF1 containing WT-ε or ε88-stop, the appropriate version of pMBε1 was transformed into E. coli strain XH1, which has a chromosomal deletion of the atpC gene for ε[54]. For these transformed strains, cultures were grown and inverted membrane vesicles (IMV) were prepared according to [55]. WT ε, with the same N-terminal His6-tag, was over-expressed from pH6ε and purified as described.
(§2) ATP hydrolysis by membrane vesicles was assayed spectrophotometrically[57] at 30 °C using an open-chamber, diode array spectrophotometer (Hewlett Packard 8453 UV–Vis) as described in[29]. The assay medium (1 ml per assay) contained 20 mM Mops/Tris, pH 8.0, 0.2 mM EDTA, 10 mM CH3COOK, 1 mM ATP, 3.2 mM Mg(CH3COO)2, 1 mM phosphoenolpyruvate, at least 0.3 mM NADH, 0.1 mg/ml pyruvate kinase, 0.1 mg/ml lactate dehydrogenase, 5 mM KCN, and 5 μM carbonyl cyanide 4-(trifluoromethoxy)-phenylhydrazone. As noted before, the rate of ATP hydrolysis by membranes increases to a small degree during assays. This is due, at least in part, to dissociation of a small fraction of EcF1 and/or ε from the membranes, since the increase is inhibited by added ε (e.g., Fig. 5). To avoid interference of this increase with the changes of ATPase activity induced by venturicidins, unless indicated otherwise, measurement of ATPase activities were started 60 min after addition of membranes to the complete assay medium. This minimizes further increases in ATPase rate during control assays to < 15%. To keep absorbance between 1.5 and 2 units after the 60-min preincubation, up to 0.2 mM additional NADH was added to the assay medium. In figures displaying activity traces, some traces are shifted vertically for visual clarity.

[3] = target: T2, FOF1-ATPase of WT E. coli membranes (Escherichia coli, UniProt P68699); test: biochemical; type: biochemical; conditions: for ATPase rate, Early / ATPase rate, Late / Late/early ratio: 10 µM ventA final; for Ki: VentA at half-max. inhibition (Ki), early inhibition
T2 construct: To express haploid levels of EcFOF1 containing WT-ε or ε88-stop; expressed in transfected cells; host or cells: E. coli strain XH1 (chromosomal atpC deletion) carrying pMBε1; inverted membrane vesicles
Method: ATP hydrolysis is enzyme-coupled to conversion of NADH to NAD^+, which results in decreased light absorbance; thus, a larger rate of ATP hydrolysis is indicated by a steeper downward slope. The system also rapidly regenerates ATP, minimizing the concentration of product ADP during the assay. Unless noted, assays were preincubated to establish a steady state hydrolysis rate (see “Methods”) before the ‘zero’ point of measurements.
as §1
as §2, with “As noted before, the rate of ATP hydrolysis by membranes increases to a small degree during assays. This is due, at least in part, to dissociation of a small fraction of EcF1 and/or ε from the membranes, since the increase is inhibited by added ε (e.g., Fig. 5).” left out, “This minimizes further increases in ATPase rate during control assays to < 15%.” left out

E. coli = tested on: E. coli; design: method as in PMID 32424122; conditions: complex growth medium; cited from earlier work
[4] = ε88stop + 38.5 mM selenite (Fig. 3B)
[5] = preincubation +MgATP, no ventA, selenite
[6] = preincubation No MgATP, +ventA (trace 2), 40 mM selenite
[7] = WT + 6 μM azide (Fig. 2C), best fit of early rates
[8] = WT + 38.5 mM selenite (Fig. 2B), best fit of early rates

In the case of `CCC(=O)C(C)C(O)C(C)CC(C)C1OC(=O)CC2(O)CC=C(C)C(O2)C(C)=CCCCC(OC2CC(OC(N)=O)C(O)C(C)O2)C=CC(C)CC1C` (stereo not drawn) [ventA, venturicidin A], the “Sensitivity of ATPase to ventA inhibition, sulfite-activated vs PMF-activated FOF1” value [1] is listed as “~ threefold”, the Ki ([2]; ε88stop (Fig. 3A)) is listed as 0.5 µM and the Ki [2, 4] is listed as 0.09 µM. For the same compound, the “Ki for early inhibition lower in presence of selenite than in its absence” value ([2]; ε88-stop membranes) was “fivefold”, the “ATPase at saturating ventA (y0)” value ([2]; ε88stop (Fig. 3A)) was 37% (± 3) and the “VentA-sensitive ATPase (y1)” value ([2]; ε88stop (Fig. 3A)) was 67% (± 4). The “ATPase at saturating ventA (y0)” value [2, 4] was 37% (± 2), the “VentA-sensitive ATPase (y1)” value [2, 4] was 66% (± 4) and the “Late rate (last 3 min of assay)” value ([3]; 9.5 μM ventA, 38.5 mM selenite (Fig. 5A #3)) was 2.7 U/mg. The “Rate during 100 s immediately before adding ε” value ([3]; 9.5 μM ventA, 38.5 mM selenite (Fig. 5A trace #4)) was 2.5 U/mg, the “ATPase rate, Early” value [3, 5] was 1.27 U/mg and the “ATPase rate, Late” value [3, 5] was 2.97 U/mg. The Late/early ratio [3, 5] was 2.34, the “ATPase rate, Early” value [3, 6] was 1.22 U/mg and the “ATPase rate, Late” value [3, 6] was 2.93 U/mg. For the same compound, the Late/early ratio [3, 6] was 2.40, the “Decrease of initial ATPase rate” value ([3]; 30 min preincubation with 10 μM ventA without ATP, selenite present) was “about 40%” and the Ki ([3]; WT + 6 μM azide (Fig. 2C)) was 1.7 µM. For the same compound, the Ki ([3]; WT + 38.5 mM selenite (Fig. 2B)) was 0.23 µM, the Ki ([3]; WT, alone (Fig. 2A)) was 0.7 µM and the “ATPase at saturating ventA (y0)” value [3, 7] was 36% (± 4). The “VentA-sensitive ATPase (y1)” value [3, 7] was 106% (± 5), the “ATPase at saturating ventA (y0)” value [3, 8] was 53% (± 1) and the “VentA-sensitive ATPase (y1)” value [3, 8] was 46% (± 2). The “Sensitivity to immediate inhibition, selenite vs azide” value ([3]; WT EcFOF1, MgADP-inhibited state minimized by selenite vs increased by azide) was “~ sevenfold”, the “Increase of early Ki value by azide” value ([3]; WT, 6 µM azide vs none) was 2.4 fold and the “ATPase at saturating ventA (y0)” value ([3]; WT, alone (Fig. 2A), best fit of early rates) was 47% (± 2). The “VentA-sensitive ATPase (y1)” value ([3]; WT, alone (Fig. 2A), best fit of early rates (within 1 min after adding ventA)) was 80% (± 5), the “Reduction of Ki for early inhibition by selenite” value ([3]; WT, with vs without selenite) was “threefold” and the “Immediate increase in ATPase rate, first minute post-addition” value ([3]; lower ventA concentration (Fig. 1, trace 2), no effector) was 11%. The inhibition at 10 µM ([3]; read-out: Additional time-dependent inhibition) was ~25%, the “ATPase activity during the last 3 min of assays” value ([3]; ventA added after 0.1 mM DCCD (trace 3, 15 μM ventA), no selenite) was 0.49 (± 0.06) U/mg and the “ATPase activity during the last 3 min of assays” value ([3]; ventA added before 0.1 mM DCCD (trace 2, 10 μM ventA), no selenite) was 0.53 (± 0.05) U/mg. The “ATPase activity during the last 3 min of assays” value ([3]; ventA after 0.1 mM DCCD (trace 3, 15 μM ventA), 38.5 mM selenite) was 2.84 U/mg, the “ATPase activity during the last 3 min of assays” value ([3]; ventA before 0.1 mM DCCD (trace 2, 10 μM ventA), 38.5 mM selenite) was 2.93 U/mg and the Adjuvant action (E. coli) was “minimal adjuvant action”.
